From ChEMBL document CHEMBL1201862, “PubChem BioAssay data set” (2004)
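All cell lines were grown in 96-well plates and treated with compound for 48 hours. Abbreviation: GI50, concentration required for 50% inhibition of growth.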 Active and inactive are the calls of the source. Cut-off read from the data, not from the text of the source: active = GI50 up to about 1.1 µM and inactive = higher.

Assays:
Assay in all cases: NCI anticancer screen, dose series, 48 h
[1] = tested on: Malme-3M
[2] = tested on: NCI-H23
[3] = tested on: SN12C
[4] = tested on: NCI-H226
[5] = tested on: HT-29
[6] = tested on: HOP-18
[7] = tested on: NCI-H460
[8] = tested on: A549
[9] = tested on: OVCAR-5
[10] = tested on: HOP-92
[11] = tested on: CAKI-1
[12] = tested on: EKVX
[13] = tested on: UACC-257
[14] = tested on: LXFL 529
[15] = tested on: MOLT-4
[16] = tested on: SNB-19
[17] = tested on: SK-MEL-28
[18] = tested on: RPMI-8226
[19] = tested on: SW-620
[20] = tested on: OVCAR-3
[21] = tested on: KM12
[22] = tested on: DMS-273
[23] = tested on: UO-31
[24] = tested on: SF-268
[25] = tested on: SNB-78
[26] = tested on: TK-10
[27] = tested on: SF-295
[28] = tested on: HCC 2998
[29] = tested on: DMS-114
[30] = tested on: COLO 205
[31] = tested on: LOX IMVI
[32] = tested on: ACHN
[33] = tested on: NCI-H522
[34] = tested on: DLD-1
[35] = tested on: SNB-75
[36] = tested on: OVCAR-4
[37] = tested on: XF498
[38] = tested on: 786-0
[39] = tested on: HCT-15
[40] = tested on: HOP-62
[41] = tested on: M14
[42] = tested on: SK-MEL-5
[43] = tested on: HL-60
[44] = tested on: RXF 631
[45] = tested on: RXF 393
[46] = tested on: OVCAR-8
[47] = tested on: CCRF-CEM
[48] = tested on: SK-MEL-2
[49] = tested on: KM-20L2
[50] = tested on: K562
[51] = tested on: SR
[52] = tested on: HCT-116
[53] = tested on: IGROV-1
[54] = tested on: SK-OV-3
[55] = tested on: UACC-62
[56] = tested on: A498
[57] = tested on: SF-539
[58] = tested on: U-251
[59] = tested on: M19-MEL

Compound: Cc1nnc(N/N=C(/C(=O)C(C#N)c2ccc(Cl)cc2)C(C#N)c2ccc(Cl)cc2)n1N (configuration not stated)
- GI50 [1]: 19.4 µM (inactive)
- GI50 [2]: 17.8 µM (inactive)
- GI50 [3]: 19.3 µM (inactive)
- GI50 [4]: 16.1 µM (inactive)
- GI50 [5]: 20.4 µM (inactive)
- GI50 [6]: 16.4 µM (inactive)
- GI50 [7]: 18.6 µM (inactive)
- GI50 [8]: 20.1 µM (inactive)
- GI50 [9]: 18.5 µM (inactive)
- GI50 [10]: > 100 µM (inactive)
- GI50 [11]: 20.8 µM (inactive)
- GI50 [12]: > 10 µM (inactive)
- GI50 [13]: 17.4 µM (inactive)
- GI50 [14]: 13.4 µM (inactive)
- GI50 [15]: 31.7 µM (inactive)
- GI50 [16]: 14.6 µM (inactive)
- GI50 [17]: 18.7 µM (inactive)
- GI50 [18]: 16.5 µM (inactive)
- GI50 [19]: 18.8 µM (inactive)
- GI50 [20]: 21.5 µM (inactive)
- GI50 [21]: 18.7 µM (inactive)
- GI50 [22]: 19 µM (inactive)
- GI50 [23]: 17.7 µM (inactive)
- GI50 [24]: 24.1 µM (inactive)
- GI50 [25]: 24.1 µM (inactive)
- GI50 [26]: 20 µM (inactive)
- GI50 [27]: 15.7 µM (inactive)
- GI50 [28]: 19.4 µM (inactive)
- GI50 [29]: 15.7 µM (inactive)
- GI50 [30]: 17.7 µM (inactive)
- GI50 [31]: 18.6 µM (inactive)
- GI50 [32]: 15.9 µM (inactive)
- GI50 [33]: 16.6 µM (inactive)
- GI50 [34]: 20.1 µM (inactive)
- GI50 [35]: 16.4 µM (inactive)
- GI50 [36]: 18.1 µM (inactive)
- GI50 [37]: 28.8 µM (inactive)
- GI50 [38]: 17.4 µM (inactive)
- GI50 [39]: 19.7 µM
- GI50 [40]: 16.6 µM (inactive)
- GI50 [41]: 20.7 µM (inactive)
- GI50 [42]: 16 µM (inactive)
- GI50 [43]: 22.5 µM (inactive)
- GI50 [44]: 19.8 µM (inactive)
- GI50 [45]: 17.7 µM (inactive)
- GI50 [46]: 20 µM (inactive)
- GI50 [47]: 35.6 µM (inactive)
- GI50 [48]: 18.2 µM (inactive)
- GI50 [49]: 20.3 µM (inactive)
- GI50 [50]: 17.5 µM (inactive)

Compound: COc1ccc2c(c1)[n+]([O-])c(C(=O)C/C(=N/OCCCc1ccccc1)C(=O)NC13CC4CC(CC(C4)C1)C3)c(C)[n+]2[O-]
- GI50 [1]: > 100 µM (inactive)
- GI50 [51]: > 100 µM (inactive)
- GI50 [2]: > 100 µM (inactive)
- GI50 [3]: > 100 µM (inactive)
- GI50 [4]: > 100 µM (inactive)
- GI50 [5]: > 100 µM (inactive)
- GI50 [6]: > 100 µM (inactive)
- GI50 [7]: > 100 µM (inactive)
- GI50 [8]: > 100 µM (inactive)
- GI50 [9]: > 100 µM (inactive)
- GI50 [11]: > 100 µM (inactive)
- GI50 [12]: > 100 µM (inactive)
- GI50 [13]: > 100 µM (inactive)
- GI50 [52]: > 100 µM (inactive)
- GI50 [14]: > 100 µM (inactive)
- GI50 [15]: > 100 µM (inactive)
- GI50 [16]: > 100 µM (inactive)
- GI50 [17]: > 100 µM (inactive)
- GI50 [18]: > 100 µM (inactive)
- GI50 [19]: > 100 µM (inactive)
- GI50 [20]: > 100 µM (inactive)
- GI50 [21]: > 100 µM (inactive)
- GI50 [22]: > 100 µM (inactive)
- GI50 [23]: > 100 µM (inactive)
- GI50 [24]: > 100 µM (inactive)
- GI50 [25]: > 100 µM (inactive)
- GI50 [26]: > 100 µM (inactive)
- GI50 [27]: > 100 µM (inactive)
- GI50 [53]: > 100 µM (inactive)
- GI50 [54]: > 100 µM (inactive)
- GI50 [28]: > 100 µM (inactive)
- GI50 [29]: > 100 µM (inactive)
- GI50 [30]: > 100 µM (inactive)
- GI50 [31]: > 100 µM (inactive)
- GI50 [32]: > 100 µM (inactive)
- GI50 [33]: > 100 µM (inactive)
- GI50 [34]: > 100 µM (inactive)
- GI50 [35]: > 100 µM (inactive)
- GI50 [36]: > 100 µM (inactive)
- GI50 [37]: > 100 µM (inactive)
- GI50 [38]: > 100 µM (inactive)
- GI50 [39]: > 100 µM
- GI50 [40]: > 100 µM (inactive)
- GI50 [55]: > 100 µM (inactive)
- GI50 [41]: > 100 µM (inactive)
- GI50 [56]: > 100 µM (inactive)
- GI50 [42]: > 100 µM (inactive)
- GI50 [43]: > 100 µM (inactive)
- GI50 [44]: > 100 µM (inactive)
- GI50 [57]: > 100 µM (inactive)
- GI50 [46]: > 100 µM (inactive)
- GI50 [58]: > 100 µM (inactive)
- GI50 [47]: 54.8 µM (inactive)
- GI50 [48]: > 100 µM (inactive)
- GI50 [49]: > 100 µM (inactive)
- GI50 [50]: 82.8 µM (inactive)
- GI50 [59]: > 100 µM (inactive)

Compound: O=C(Nc1ccc(Cl)cc1)C1C(=O)C(=O)N(c2ccc(Cl)cc2)C1=O (configuration not stated)
- GI50 [1]: > 100 µM (inactive)
- GI50 [51]: > 100 µM (inactive)
- GI50 [2]: > 100 µM (inactive)
- GI50 [3]: 81.1 µM (inactive)
- GI50 [4]: > 100 µM (inactive)
- GI50 [5]: 74.8 µM (inactive)
- GI50 [6]: > 100 µM (inactive)
- GI50 [7]: > 100 µM (inactive)
- GI50 [8]: > 100 µM (inactive)
- GI50 [9]: > 100 µM (inactive)
- GI50 [10]: 29.1 µM (inactive)
- GI50 [11]: > 100 µM (inactive)
- GI50 [12]: > 100 µM (inactive)
- GI50 [52]: 53.7 µM (inactive)
- GI50 [14]: 59.2 µM (inactive)
- GI50 [15]: 71.3 µM (inactive)
- GI50 [16]: 76.7 µM (inactive)
- GI50 [17]: > 100 µM (inactive)
- GI50 [18]: > 100 µM (inactive)
- GI50 [19]: > 100 µM (inactive)
- GI50 [20]: > 100 µM (inactive)
- GI50 [21]: > 100 µM (inactive)
- GI50 [22]: > 100 µM (inactive)
- GI50 [23]: 79.6 µM (inactive)
- GI50 [24]: > 100 µM (inactive)
- GI50 [25]: 54 µM (inactive)
- GI50 [26]: > 100 µM (inactive)
- GI50 [27]: 93.8 µM (inactive)
- GI50 [53]: > 100 µM (inactive)
- GI50 [54]: > 100 µM (inactive)
- GI50 [29]: > 100 µM (inactive)
- GI50 [30]: > 100 µM (inactive)
- GI50 [31]: > 100 µM (inactive)
- GI50 [32]: 89.9 µM (inactive)
- GI50 [33]: > 100 µM (inactive)
- GI50 [34]: 68.9 µM (inactive)
- GI50 [35]: > 100 µM (inactive)
- GI50 [37]: > 100 µM (inactive)
- GI50 [38]: > 100 µM (inactive)
- GI50 [39]: 35.9 µM
- GI50 [55]: > 100 µM (inactive)
- GI50 [41]: > 100 µM (inactive)
- GI50 [56]: 60.7 µM (inactive)
- GI50 [42]: > 100 µM (inactive)
- GI50 [43]: > 100 µM (inactive)
- GI50 [44]: > 100 µM (inactive)
- GI50 [57]: > 100 µM (inactive)
- GI50 [45]: > 100 µM (inactive)
- GI50 [46]: > 100 µM (inactive)
- GI50 [58]: 58.6 µM (inactive)
- GI50 [47]: 73.6 µM (inactive)
- GI50 [48]: 38.6 µM (inactive)
- GI50 [49]: 45.8 µM (inactive)
- GI50 [50]: 41.1 µM (inactive)
- GI50 [59]: > 100 µM (inactive)
